This note sets out measurements from patent US20030212100A1, “Quinoline derivatives and medicinal use thereof” (priority 2000, published 2003).

This experiment has as its system KK-Ay/Ta Jci type 2 diabetes mice. The experiment is described as follows: In-vivo blood sugar and lipid reduction in diabetes model mice (KKAy mice). Set-up: species or system mouse. As to conditions: 30 mg/kg orally one time per day for 4 days, 5th day vs 1st day. On the procedure:
Test for in-vivo Evaluation of the Activities for Blood Sugar Reduction and Lipid Reduction Using Diabetes Model Mice (KKAy Mice)
Type 2 diabetes mice “KK-Ay/Ta Jci” (male, Clea Japan, Inc., 10-week old) put in cages were used (each cage contained 5 mice). In the morning of the 1st day of test start, a blood was collected from the orbital vein of each mouse. The blood sugar value in the blood was measured by subjecting the blood to deproteinization using perchloric acid, subjecting the resulting material to centrifugation, and subjecting the resulting supernatant liquid to a new blood sugar test (Boehringer Mannheim). Further, the blood was subjected to centrifugation to obtain a plasma and the triglyceride concentration and free fatty acid concentration in the plasma were measured using Triglyceride E-Test Wako and NEFA-C Test Wako (Wako Pure Chemical Industries, Ltd.), respectively. Grouping was made so that the blood sugar values in individual groups became the same. Then, an Example 2 compound (exemplary compound No. 61) was suspended in a 0.5% aqueous CMC solution and administered orally one time per day for 4 days. In the 5th day of test, blood collection was made to measure blood sugar value, triglyceride concentration and free fatty acid concentration. Incidentally, a group to which only the 0.5% aqueous CMC solution was administered, was used as a control group; and Pioglitazone was used in a positive control group. The reduction in parameter in each group was calculated using the following formula.
Reduction (%)={1−(parameter of 5th day in each group)/(parameter of 1st day in each group)}×100

`CCc1ccc(CCOc2ccc(CC3SC(=O)NC3=O)cc2)nc1` (stereo not drawn) [Pioglitazone, reference compound]: the “Reduction in blood sugar (%)” value is given as 28%. Also, for the setting “plasma”, the “Reduction in free fatty acid (%)” value was 49% and the “Reduction in triglyceride (%)” value was 60%.
